{
  "source": "patent US11957684B2",
  "about": "“Treatment of heavy menstrual bleeding associated with uterine fibroids” (Sumitomo Pharma Switzerland GmbH, priority 2016, dated 2024)",
  "key": {"clinical [1]": {"assay": "clinical", "settings": "for half-life: human, in vivo", "description": "(See J. W. Ng, et al., “Dose-Dependent Suppression of Gonadotropins and Ovarian Hormones by Elagolix in Healthy Premenopausal Females” (poster, 2016); J. Grundy, et al., […] (2008), Vol 83: Supplement 1, S9)."}, "FIG. 7D": {"assay": "FIG. 7D", "description": "Table printed on a drawing sheet, FIG. 7D\nThe patent's description of the figure: FIGS. 7A-F are tables of plasma PK parameters for Cohorts 8 to 10 in accordance with Example 4."}, "clinical [2]": {"assay": "clinical", "settings": "female, human, in vivo", "method": "The study was a phase 1, double-blind, randomized, placebo-controlled, sequential-panel, ascending single- and multiple-dose study in healthy premenopausal women. Ten groups, each of 12 healthy premenopausal, adult women, participated in the study (Cohorts 1 to 10).\nCohorts 1 to 6 were referred to as the single-rising dose (SRD) portion of the study, where cohorts were dosed in an escalating fashion. All subjects in a given cohort received their dose of study medication on the same day with the exception of subjects in Cohort 1, which were split into 2 subcohorts (Cohorts 1a and 1b). Dosing between these 2 subcohorts was separated by a minimum of 2 days. Dosing between subsequent cohorts was separated by a minimum of 7 days. The decision to proceed to Cohort 1b was made by the investigator after a minimum 48-hour evaluation of subjects in Cohort 1a. The decision to escalate the dose for the remaining cohorts in the SRD portion was based on review of the safety and pharmacokinetic data for all subjects in the previous cohort.\nSubjects were required to fast overnight (minimum 10 hours) prior to dosing and continued to fast for 4 hours following dosing. Subjects were given a menu for the dosing period to include 2 meals and an evening snack, each containing approximately 25% fat content. Six ascending dose groups were planned: 1.0 mg (Cohort 1), 5.0 mg (Cohort 2), 10 mg (Cohort 3), 20 mg (Cohort 4), 40 mg (Cohort 5), and 80 mg (Cohort 6). Subjects in each of Cohorts 1a, 1b, 2, 3, 4, 5 and 6 received drug dosing on a single day only.\nCohorts 1 to 7 were each composed of 12 healthy premenopausal women aged 18 to 49 years, inclusive. […] In one sequence, dosing was under fasting conditions (minimum 10 hours). In the other sequence, dosing was approximately 30 minutes after the start of a high-fat, high calorie breakfast (provided approximately 1000 calories, with 50% of the calories from fat).\nCohorts 8 to 10 were each composed of 12 healthy premenopausal women aged 18 to 45 years, inclusive. Cohorts 8 to 10 were referred to as the multiple-rising dose (MRD) portion of the study, where cohorts were dosed in escalating fashion. The MRD portion was not started until all the blinded safety and pharmacokinetic data from the SRD cohorts had been assessed by the investigator and the sponsor. […] Subjects received the first dose of study medication (Day 1) within 2 to 7 days following the onset of their menstrual cycle. Three ascending dose groups were planned: 10 mg once-daily (QD) (Cohort 8), 20 mg QD (Cohort 9), and 40 mg QD (Cohort 10). Subjects in each of Cohorts 8 to 10 received drug dosing on 14 days (Days 1 to 14).\nSubjects had to drink all of the water provided with the dose of study drug. Subjects were able to consume water ad libitum with the exception of 1 hour prior to and 1 hour after drug administration, not including the 240 mL of water taken with dosing.\nTo assess the food effect, an analysis of variance was performed using Cohort 7 log(mean Cmax), log(area under the plasma drug concentration-time curves [mean plasam AUCs]) as dependent variable; treatment, sequence, period as fixed effects; and subject (seq) as a random effect."}, "[3]": {"test_system": "women with uterine fibroids", "settings": "in vivo", "method": "The primary endpoint was the proportion of patients with a total Pictorial Blood Loss Assessment Chart (PBAC) score 4 of <10 from Week 6 to 12. Secondary endpoints included amenorrhea (PBAC score of 0), myoma and uterine volumes, hemoglobin (Hb), Numerical Rating Scale (NRS) score, Uterine Fibroid Symptom and Quality of Life (UFS-QOL) scores. Serum levels of luteinizing hormone (LH), follicle-stimulating hormone (FSH), estradiol (E2) and progesterone (P) were evaluated as pharmacodynamics endpoints. Safety endpoints included adverse events (AEs), vital signs, weight, 12-lead electrocardiogram (ECG), clinical laboratory tests, bone mineral density (BMD) and recovery of menstruation.\nThe bone mineral density (BMD) of the second to fourth lumbar vertebra (L2 to L4) was measured using dual X-ray absorptiometry (DXA)."}, "[4]": {"assay": "Single dose (1 to 80 mg) and 14-day multiple dose (10 to 40 mg) PK of the Compound 1 formulation", "assay_type": "in vivo", "settings": "for half-life: read-out: mean plasma half-life (T1/2)", "description": "However, in a preferred embodiment, the pharmacokinetics of the Compound 1 formulation are not affected by food intake.\nThe mean plasma AUC after a single dose was higher after fasted dosing than after postprandial or preprandial dosing. The mean plasma AUC and mean Cmax with multiple dosing were higher with preprandial than with postprandial dosing."}, "FIG. 6C": {"assay": "FIG. 6C", "method": "Table printed on a drawing sheet, FIG. 6C\n(§1) The patent's description of the figure: FIGS. 6A-C are tables of plasma PK parameters for Cohort 7 in accordance with Example 4.\nFirst reader's note: Part of a plasma PK table series (FIGS. 6A-C) for Cohort 7; each column is a fed or fasted 40 mg arm."}, "FIG. 6A": {"assay": "FIG. 6A", "method": "Table printed on a drawing sheet, FIG. 6A\nas §1\nFirst reader's note: Plasma PK parameters for the fed and fasted 40 mg arms; the table continues in FIGS. 6B-C on other sheets."}, "[5]": {"settings": "human, plasma, po, Day 14 of multiple doses of 10 to 40 mg"}},
  "note": "“And” between values parts separate entries of the source, which are not always exact repeats. Equal values may be shown once.",
  "data": [
    {"molecule": "CONC(=O)Nc1ccc(-c2sc3c(c2CN(C)C)c(=O)n(-c2ccc(OC)nn2)c(=O)n3Cc2c(F)cccc2F)cc1", "note": "[Compound 1, N-(4-(1-(2,6-difluorobenzyl)-5-((dimethylamino)methyl)-3-(6-methoxy-3-pyridazinyl)-2,4-dioxo-1,2,3,4-tetrahydrothieno[2,3-d]pyrimidin-6-yl)phenyl)-N′-methoxyurea]", "values": [
      {"measurement": "E2 in the majority of subjects", "setting": "clinical [1]; 40 mg per day", "result": "below 10 pg/mL"},
      {"measurement": "half-life", "setting": "clinical [1]; T1/2, highest found", "result": "~61", "unit": "h"},
      {"measurement": "half-life", "setting": "clinical [1]; half-life (T1/2)", "result": "37 to 42", "unit": "h"},
      {"measurement": "Tmax (hr) | Median", "setting": "FIG. 7D", "result": "0.980 h and 1.480 h and 1.000 h"},
      {"measurement": "CL renal", "setting": "clinical [2]", "result": "95 to 138", "unit": "mL/min"},
      {"measurement": "Tmax, all subjects", "setting": "clinical [2]", "result": "≤ 2", "unit": "h"},
      {"measurement": "half-life", "setting": "clinical [2]", "result": "14 to 16", "unit": "h"},
      {"measurement": "mean Fe (fraction of dose excreted in urine)", "setting": "clinical [2]", "result": "less than 3%"},
      {"measurement": "median Tmax", "setting": "clinical [2]", "result": "1 to 1.48", "unit": "h"},
      {"measurement": "half-life", "setting": "clinical [2]; 1 mg", "result": "~6", "unit": "h"},
      {"measurement": "Tmax", "setting": "clinical [2]; 80 mg, median Tmax", "result": 4, "unit": "h"},
      {"measurement": "menstruation recovery period after the last dose", "setting": "[3]", "result": "20 to 35", "unit": "days"},
      {"measurement": "half-life", "setting": "[4]; human, plasma, po, single dose 1 to 80 mg", "result": "7.1 to 19.8", "unit": "h"},
      {"measurement": "Tmax", "setting": "[4]; [5]", "result": "1 to 1.5", "unit": "h"},
      {"measurement": "half-life", "setting": "[4]; [5]", "result": "19.2 to 24.6", "unit": "h"},
      {"measurement": "day by which steady state was reached", "setting": "[4]; multiple dosing", "result": "≤ 7", "unit": "days"},
      {"measurement": "CL/F (L/hr) | Mean", "setting": "FIG. 6C", "result": "739.7 L/h and 445.4 L/h"},
      {"measurement": "Vz/F (L) | Mean", "setting": "FIG. 6C", "result": "17932.0 L and 11042.3 L"},
      {"measurement": "AUC (O-inf) (ng*hr/mL) | Mean", "setting": "FIG. 6A", "result": "63.437 ng·h/mL and 125.275 ng·h/mL"},
      {"measurement": "AUC (O-tlqc) (ng*hr/mL) | Mean", "setting": "FIG. 6A", "result": "55.792 ng·h/mL and 110.782 ng·h/mL"}
    ]}
  ]
}
